Several values for one entry are separate records, joined by “and”; a condition that tells them apart may be missing. Identical values can stand only once. Like-named read-outs stand apart in the source and are kept apart here.
Experiments:
mice [1] = test: Mouse locomotor activity; format: in vivo; conditions: PO
Description: (§1) In order to ensure effects of the compounds on immobility time were not related to a general stimulant effect on baseline motor activity, locomotor activity was assessed using photocell monitored cages (Med-Associates Inc.). Each test chamber was equipped with infrared photocell beams to measure movement of the animals. Horizontal and vertical activity were measured
(§2) Rats or mice were pretreated with vehicle or test compounds and placed back in home cage, following which they will be individually placed in locomotor cages and activity was monitored in 5 minute intervals for up to 60 min.
(§3) Data were analyzed by one way analysis of variance (ANOVA) followed by post-hoc comparisons where appropriate. An effect was considered significant if p < 0.05. Data are represented as the mean and standard error to the mean (s.e.m).

mice [2] = test: Mouse tail suspension test; format: in vivo; conditions: PO, 30-60 minutes before the test, 5 minutes recording
dopamine transporter = molecular target: T1, dopamine transporter (Rattus norvegicus, UniProt P23977); test: biochemical; conditions: rat synaptosomes, dopamine transporter (DAT)
T1 construct: synaptosomes isolated in a 0.32 M sucrose buffer from a male Wistar rat striatum; from tissue; host or cells: male Wistar rat striatum synaptosomes
T1 sequence (P23977 whole entry): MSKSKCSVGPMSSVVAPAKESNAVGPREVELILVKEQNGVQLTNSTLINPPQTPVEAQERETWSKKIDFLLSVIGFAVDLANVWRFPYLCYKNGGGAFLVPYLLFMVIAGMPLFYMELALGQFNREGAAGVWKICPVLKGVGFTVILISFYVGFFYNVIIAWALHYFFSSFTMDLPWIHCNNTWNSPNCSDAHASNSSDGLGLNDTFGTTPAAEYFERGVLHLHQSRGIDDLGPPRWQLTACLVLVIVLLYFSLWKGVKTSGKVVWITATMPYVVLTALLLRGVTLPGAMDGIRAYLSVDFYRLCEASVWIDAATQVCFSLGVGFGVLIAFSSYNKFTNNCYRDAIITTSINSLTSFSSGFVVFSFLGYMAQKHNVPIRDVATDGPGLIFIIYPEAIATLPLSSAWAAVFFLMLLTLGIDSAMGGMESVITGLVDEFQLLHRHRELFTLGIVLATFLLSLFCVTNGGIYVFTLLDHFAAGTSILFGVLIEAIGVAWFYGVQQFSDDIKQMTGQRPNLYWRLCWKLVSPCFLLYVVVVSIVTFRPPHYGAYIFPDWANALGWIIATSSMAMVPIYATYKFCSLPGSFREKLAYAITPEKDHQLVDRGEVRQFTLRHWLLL

[3] = molecular target: T2, DA Transporter (DAT) Sites in Mouse Brain (Mus musculus, UniProt Q61327); test: Ex vivo [3H] WIN 35428 binding after oral dosing; parameters: species or system C57BL/6 mice; conditions: for % Transporter Occupancy, DAT: 60 minutes after treatment, vs vehicle; for Mean Specific Binding (dpm) ± S.E.M., DAT: mice sacrificed 60 minutes after treatment, striatum
T2 construct: Striatum was used to determine occupancy of DA transporter sites; from tissue; host or cells: C57BL/6 mouse striatum homogenate
T2 sequence (Q61327 whole entry): as the sequence (P23977 whole entry) above, with S21P, A57V, A194S, H600R, L619V counted along it

Rats [4] = test: Rat forced swim test; format: in vivo; conditions: PO, 24 hours and 30-60 minutes before the 5 minute test
[5] = molecular target: human serotonin reuptake transporter (Homo sapiens, UniProt P31645); test: cell-based; conditions: recombinant human serotonin transporter (SERT); read-out: Human IC50 (nM) hSERT
Chain of human serotonin reuptake transporter (P31645 whole entry): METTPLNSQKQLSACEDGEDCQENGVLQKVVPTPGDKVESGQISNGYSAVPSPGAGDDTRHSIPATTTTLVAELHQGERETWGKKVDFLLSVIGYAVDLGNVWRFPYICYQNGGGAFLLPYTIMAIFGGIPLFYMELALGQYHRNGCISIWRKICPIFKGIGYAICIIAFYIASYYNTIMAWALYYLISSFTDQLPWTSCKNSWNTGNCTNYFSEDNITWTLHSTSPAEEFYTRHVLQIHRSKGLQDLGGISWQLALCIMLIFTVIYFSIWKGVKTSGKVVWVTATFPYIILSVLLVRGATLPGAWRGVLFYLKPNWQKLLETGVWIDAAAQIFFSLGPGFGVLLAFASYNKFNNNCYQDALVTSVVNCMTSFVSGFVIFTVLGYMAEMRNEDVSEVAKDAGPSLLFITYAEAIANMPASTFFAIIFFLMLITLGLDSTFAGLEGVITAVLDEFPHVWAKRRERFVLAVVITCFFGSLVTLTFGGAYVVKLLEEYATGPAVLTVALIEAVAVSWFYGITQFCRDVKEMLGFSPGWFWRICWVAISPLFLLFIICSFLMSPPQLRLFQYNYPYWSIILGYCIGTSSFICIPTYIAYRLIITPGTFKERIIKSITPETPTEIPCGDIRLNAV

[6] = molecular target: T3, 5-HT Transporter (SERT) Sites in Mouse Brain (Mus musculus, UniProt Q60857); test: Ex vivo [3H] citalopram binding after oral dosing; parameters: species or system C57BL/6 mice; conditions: for % Transporter Occupancy, SERT: 60 minutes after treatment, vs vehicle; for Mean Specific Binding (dpm) ± S.E.M., SERT: mice sacrificed 60 minutes after treatment, cortex
T3 construct: Whole brains were removed and cortex and striata dissected out; from tissue; host or cells: C57BL/6 mouse frontal cortex homogenate
T3 sequence (Q60857 whole entry): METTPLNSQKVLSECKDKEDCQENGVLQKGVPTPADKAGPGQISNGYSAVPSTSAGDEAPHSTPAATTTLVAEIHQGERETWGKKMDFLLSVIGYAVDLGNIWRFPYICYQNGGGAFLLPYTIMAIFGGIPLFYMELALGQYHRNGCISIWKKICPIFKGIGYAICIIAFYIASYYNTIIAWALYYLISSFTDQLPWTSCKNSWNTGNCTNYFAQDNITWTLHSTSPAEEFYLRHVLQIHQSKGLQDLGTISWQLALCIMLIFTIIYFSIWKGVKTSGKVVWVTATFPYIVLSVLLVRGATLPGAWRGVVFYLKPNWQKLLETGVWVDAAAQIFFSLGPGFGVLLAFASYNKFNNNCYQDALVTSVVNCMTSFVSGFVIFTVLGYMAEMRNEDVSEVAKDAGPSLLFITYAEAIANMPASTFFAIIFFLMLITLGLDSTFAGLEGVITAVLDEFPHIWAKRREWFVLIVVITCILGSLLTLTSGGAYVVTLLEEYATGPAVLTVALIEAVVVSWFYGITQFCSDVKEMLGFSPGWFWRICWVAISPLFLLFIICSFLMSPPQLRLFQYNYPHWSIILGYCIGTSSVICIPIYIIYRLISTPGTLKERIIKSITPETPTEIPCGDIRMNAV

[7] = molecular target: Norepinephrine Transporter (NET) Sites in Mouse Brain (Mus musculus, UniProt O55192); conditions: PO; for % Transporter Occupancy, NET: 60 minutes after treatment, vs vehicle; for Mean Specific Binding (dpm) ± S.E.M., NET: mice sacrificed 60 minutes after treatment, cortex
Chain of Norepinephrine Transporter (NET) Sites in Mouse Brain (O55192 whole entry): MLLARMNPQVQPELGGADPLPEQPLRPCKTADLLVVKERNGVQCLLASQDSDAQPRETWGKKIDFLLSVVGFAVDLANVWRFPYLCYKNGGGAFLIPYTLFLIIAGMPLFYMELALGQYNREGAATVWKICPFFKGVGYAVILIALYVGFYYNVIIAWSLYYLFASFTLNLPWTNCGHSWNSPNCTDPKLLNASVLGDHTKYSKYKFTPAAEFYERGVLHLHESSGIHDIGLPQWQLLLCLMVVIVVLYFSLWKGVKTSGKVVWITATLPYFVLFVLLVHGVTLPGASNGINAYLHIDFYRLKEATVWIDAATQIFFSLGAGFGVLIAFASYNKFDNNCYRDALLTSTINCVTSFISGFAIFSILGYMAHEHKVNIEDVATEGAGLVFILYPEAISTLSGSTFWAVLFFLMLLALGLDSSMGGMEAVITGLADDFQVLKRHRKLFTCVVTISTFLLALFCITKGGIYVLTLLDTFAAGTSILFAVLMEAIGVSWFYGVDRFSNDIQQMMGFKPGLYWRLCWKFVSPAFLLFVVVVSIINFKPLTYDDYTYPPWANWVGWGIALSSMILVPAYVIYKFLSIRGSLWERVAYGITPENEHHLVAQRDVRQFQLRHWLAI

Rats [8] = test: Rat locomotor activity; format: in vivo; conditions: PO
Description: as §1, §2, §3

[9] = molecular target: T4, human dopamine reuptake transporter (Homo sapiens, UniProt Q01959); test: cell-based; conditions: recombinant human dopamine transporter (DAT); read-out: Human IC50 (nM) hDAT
T4 construct: expressed in transfected cells; host or cells: CHO-K1 or HEK293
T4 sequence (Q01959 whole entry): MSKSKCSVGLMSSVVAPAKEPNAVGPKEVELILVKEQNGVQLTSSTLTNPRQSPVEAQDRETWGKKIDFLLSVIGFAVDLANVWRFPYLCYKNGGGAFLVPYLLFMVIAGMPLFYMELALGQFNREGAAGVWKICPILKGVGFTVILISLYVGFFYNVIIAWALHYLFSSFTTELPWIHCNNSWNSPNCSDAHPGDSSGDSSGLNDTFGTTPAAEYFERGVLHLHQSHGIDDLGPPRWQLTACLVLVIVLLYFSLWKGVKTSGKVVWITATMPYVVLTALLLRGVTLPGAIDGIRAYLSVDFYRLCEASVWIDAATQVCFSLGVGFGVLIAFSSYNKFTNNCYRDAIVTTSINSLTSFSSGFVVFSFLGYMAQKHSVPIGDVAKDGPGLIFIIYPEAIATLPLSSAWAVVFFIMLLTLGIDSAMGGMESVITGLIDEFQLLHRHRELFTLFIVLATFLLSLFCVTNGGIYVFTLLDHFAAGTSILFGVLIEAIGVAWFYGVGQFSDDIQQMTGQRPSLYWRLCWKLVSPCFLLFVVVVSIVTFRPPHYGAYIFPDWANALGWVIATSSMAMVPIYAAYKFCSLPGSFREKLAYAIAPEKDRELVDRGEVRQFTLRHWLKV

serotonin transporter = molecular target: T5, serotonin transporter (Rattus norvegicus, UniProt P31652); test: biochemical; conditions: rat synaptosomes, serotonin transporter (SERT)
T5 construct: synaptosomes isolated in a 0.32M sucrose buffer from a male Wistar rat cortex; from tissue; host or cells: male Wistar rat cortex synaptosomes
T5 sequence (P31652 whole entry): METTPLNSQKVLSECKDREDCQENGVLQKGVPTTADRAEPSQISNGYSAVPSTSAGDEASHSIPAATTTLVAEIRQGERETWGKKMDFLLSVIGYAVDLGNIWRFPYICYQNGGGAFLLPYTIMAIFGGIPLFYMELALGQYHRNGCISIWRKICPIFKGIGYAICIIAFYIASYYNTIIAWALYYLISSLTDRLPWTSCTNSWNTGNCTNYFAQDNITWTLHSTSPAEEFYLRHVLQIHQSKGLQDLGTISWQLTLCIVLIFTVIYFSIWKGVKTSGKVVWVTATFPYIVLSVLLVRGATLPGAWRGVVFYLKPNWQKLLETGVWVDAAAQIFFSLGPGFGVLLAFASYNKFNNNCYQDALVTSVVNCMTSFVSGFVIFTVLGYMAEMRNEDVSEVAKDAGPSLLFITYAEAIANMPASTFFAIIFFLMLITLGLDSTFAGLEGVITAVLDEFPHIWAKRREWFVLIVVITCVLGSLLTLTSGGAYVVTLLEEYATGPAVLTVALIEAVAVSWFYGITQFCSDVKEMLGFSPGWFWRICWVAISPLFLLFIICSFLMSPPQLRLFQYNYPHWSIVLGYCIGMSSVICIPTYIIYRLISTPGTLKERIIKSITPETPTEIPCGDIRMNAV

CNCC1(c2ccc(Cl)c(Cl)c2)CCCCC1.Cl [Compound 75, 1-(1-(3,4-dichlorophenyl)cyclohexyl)-N-methylmethanamine (hydrochloride)]
Mouse Locomotor Activity Total Distance Traveled ± S.E.M. (mice [1]; 3 mg/kg): 653.5 ± 48.4 | Mouse Locomotor Activity Total Distance Traveled ± S.E.M. (mice [1]; 10 mg/kg): 608.8 ± 83.4 | Mouse Locomotor Activity Total Distance Traveled ± S.E.M. (mice [1]; 30 mg/kg): 655.3 ± 117.7 | Mouse Tail Suspension Mean Immobility Time ± S.E.M. (mice [2]; 3 mg/kg): 187.8 ± 9.6 | Mouse Tail Suspension Mean Immobility Time ± S.E.M. (mice [2]; 10 mg/kg): 177.7 ± 5.8 | Mouse Tail Suspension Mean Immobility Time ± S.E.M. (mice [2]; 30 mg/kg): 143.5 ± 5.8 | IC50 (dopamine transporter; Rat IC50 (nM) rDAT): 58 nM

CN(C)C[C@]1(c2ccc3ccccc3c2)CC[C@](C)(O)CC1 [Compound 225, 4-((dimethylamino)methyl)-1-methyl-4-(naphthalen-2-yl)cyclohexanol]
% Transporter Occupancy, DAT ([3]; 1 mg/kg): 3% | Mean Specific Binding (dpm) ± S.E.M., DAT ([3]; 1 mg/kg): 19787 ± 3338 dpm | % Transporter Occupancy, DAT ([3]; 3 mg/kg): -6% | Mean Specific Binding (dpm) ± S.E.M., DAT ([3]; 3 mg/kg): 21666 ± 3698 dpm | % Transporter Occupancy, DAT ([3]; 10 mg/kg): 8% | Mean Specific Binding (dpm) ± S.E.M., DAT ([3]; 10 mg/kg): 18872 ± 2775 dpm | % Transporter Occupancy, DAT ([3]; 30 mg/kg): 29% | Mean Specific Binding (dpm) ± S.E.M., DAT ([3]; 30 mg/kg): 14618 ± 1209 dpm | Mouse Locomotor Activity Total Distance Traveled ± S.E.M. (mice [1]; 0.3 mg/kg): 519.5 ± 56.4 | Mouse Locomotor Activity Total Distance Traveled ± S.E.M. (mice [1]; 1 mg/kg): 423.4 ± 62.3 | Mouse Locomotor Activity Total Distance Traveled ± S.E.M. (mice [1]; 10 mg/kg): 234.2 ± 49.4 | Mouse Locomotor Activity Total Distance Traveled ± S.E.M. (mice [1]; 30 mg/kg): 177.4 ± 47.8 | Rat Forced Swim (Means ± S.E.M.) Climbing (Rats [4]; 3 mg/kg): 8.4 ± 1.7 | Rat Forced Swim (Means ± S.E.M.) Immobility (Rats [4]; 3 mg/kg): 50.8 ± 1.8 | Rat Forced Swim (Means ± S.E.M.) Climbing (Rats [4]; 10 mg/kg): 11.1 ± 2.7 | Rat Forced Swim (Means ± S.E.M.) Immobility (Rats [4]; 10 mg/kg): 47.6 ± 3.0 | Rat Forced Swim (Means ± S.E.M.) Swimming (Rats [4]; 10 mg/kg): 1.2 ± 0.6 | Rat Forced Swim (Means ± S.E.M.) Climbing (Rats [4]; 30 mg/kg): 25.0 ± 4.6 | Rat Forced Swim (Means ± S.E.M.) Immobility (Rats [4]; 30 mg/kg): 33.4 ± 4.8 | Rat Forced Swim (Means ± S.E.M.) Swimming (Rats [4]; 30 mg/kg): 1.1 ± 0.5 | IC50 [5]: 7 nM | % Transporter Occupancy, SERT ([6]; 1 mg/kg): 17% | Mean Specific Binding (dpm) ± S.E.M., SERT ([6]; 1 mg/kg): 3842 ± 152 dpm | % Transporter Occupancy, SERT ([6]; 3 mg/kg): 54% | Mean Specific Binding (dpm) ± S.E.M., SERT ([6]; 3 mg/kg): 2118 ± 139 dpm | % Transporter Occupancy, SERT ([6]; 10 mg/kg): 81% | Mean Specific Binding (dpm) ± S.E.M., SERT ([6]; 10 mg/kg): 904 ± 35 dpm | % Transporter Occupancy, SERT ([6]; 30 mg/kg): 91% | Mean Specific Binding (dpm) ± S.E.M., SERT ([6]; 30 mg/kg): 414 ± 37 dpm | Mouse Tail Suspension Mean Immobility Time ± S.E.M. (mice [2]; 0.3 mg/kg): 188.1 ± 8.0 | Mouse Tail Suspension Mean Immobility Time ± S.E.M. (mice [2]; 1 mg/kg): 186.5 ± 5.2 | Mouse Tail Suspension Mean Immobility Time ± S.E.M. (mice [2]; 3 mg/kg): 158.5 ± 4.9 and 155.2 ± 6.0 | Mouse Tail Suspension Mean Immobility Time ± S.E.M. (mice [2]; 10 mg/kg): 137.8 ± 5.2 | Mouse Tail Suspension Mean Immobility Time ± S.E.M. (mice [2]; 30 mg/kg): 136.3 ± 2.5 | % Transporter Occupancy, NET ([7]; 1 mg/kg): 25% | Mean Specific Binding (dpm) ± S.E.M., NET ([7]; 1 mg/kg): 1170 ± 68 dpm | % Transporter Occupancy, NET ([7]; 3 mg/kg): 48% | Mean Specific Binding (dpm) ± S.E.M., NET ([7]; 3 mg/kg): 813 ± 64 dpm | % Transporter Occupancy, NET ([7]; 10 mg/kg): 75% | Mean Specific Binding (dpm) ± S.E.M., NET ([7]; 10 mg/kg): 393 ± 21 dpm | % Transporter Occupancy, NET ([7]; 30 mg/kg): 85% | Mean Specific Binding (dpm) ± S.E.M., NET ([7]; 30 mg/kg): 230 ± 33 dpm | Rat Locomotor Activity Total Distance Traveled ± S.E.M. (Rats [8]; 3 mg/kg): 1783.4 ± 182.7 | Rat Locomotor Activity Total Distance Traveled ± S.E.M. (Rats [8]; 10 mg/kg): 1628.5 ± 159.2 | Rat Locomotor Activity Total Distance Traveled ± S.E.M. (Rats [8]; 30 mg/kg): 2182.8 ± 151.2

CN(C)CC1(c2ccc(Cl)c(Cl)c2)CCC(F)CC1 (centres unmarked) [Compound 254, 1-(1-(3,4-dichlorophenyl)-4-fluorocyclohexyl)-N,N-dimethylmethanamine]
IC50 [9]: < 1 nM | IC50 [5]: 294 nM | IC50 (dopamine transporter; Rat IC50 (nM) rDAT): 100 nM

COC1CCC(CN(C)C)(c2ccc(Cl)c(Cl)c2)CC1 (centres unmarked) [Compound 256, 1-(1-(3,4-dichlorophenyl)-4-methoxycyclohexyl)-N,N-dimethylmethanamine]
IC50 [9]: 157 nM | IC50 (serotonin transporter; read-out: Rat IC50 (nM) rSERT): 280 nM | IC50 [5]: 69 nM | IC50 (dopamine transporter; read-out: Rat IC50 (nM) rDAT): 990 nM

CN(C)CC1(c2ccc(Cl)c(Cl)c2)CCC(C)(O)CC1 (centres unmarked) [Compound 277, 4-(3,4-dichlorophenyl)-4-((dimethylamino)methyl)-1-methylcyclohexanol]
% Transporter Occupancy, DAT ([3]; 1 mg/kg): 17% | Mean Specific Binding (dpm) ± S.E.M., DAT ([3]; 1 mg/kg): 35827 ± 2302 dpm | % Transporter Occupancy, DAT ([3]; 3 mg/kg): 21% | Mean Specific Binding (dpm) ± S.E.M., DAT ([3]; 3 mg/kg): 34136 ± 4104 dpm | % Transporter Occupancy, DAT ([3]; 10 mg/kg): 23% | Mean Specific Binding (dpm) ± S.E.M., DAT ([3]; 10 mg/kg): 33230 ± 2807 dpm | % Transporter Occupancy, DAT ([3]; 30 mg/kg): 26% | Mean Specific Binding (dpm) ± S.E.M., DAT ([3]; 30 mg/kg): 31743 ± 4406 dpm | Mouse Locomotor Activity Total Distance Traveled ± S.E.M. (mice [1]; 3 mg/kg): 418.8 ± 80.6 | Mouse Locomotor Activity Total Distance Traveled ± S.E.M. (mice [1]; 10 mg/kg): 411.8 ± 87.8 | Mouse Locomotor Activity Total Distance Traveled ± S.E.M. (mice [1]; 30 mg/kg): 327.7 ± 67.1 | IC50 (serotonin transporter; Rat IC50 (nM) rSERT): 42 nM | IC50 [5]: 34 nM | % Transporter Occupancy, SERT ([6]; 1 mg/kg): -6% | Mean Specific Binding (dpm) ± S.E.M., SERT ([6]; 1 mg/kg): 1508 ± 86 dpm | % Transporter Occupancy, SERT ([6]; 3 mg/kg): -5% | Mean Specific Binding (dpm) ± S.E.M., SERT ([6]; 3 mg/kg): 1491 ± 75 dpm | % Transporter Occupancy, SERT ([6]; 10 mg/kg): 0% | Mean Specific Binding (dpm) ± S.E.M., SERT ([6]; 10 mg/kg): 1416 ± 43 dpm | % Transporter Occupancy, SERT ([6]; 30 mg/kg): 3% | Mean Specific Binding (dpm) ± S.E.M., SERT ([6]; 30 mg/kg): 1384 ± 101 dpm | % Transporter Occupancy, NET ([7]; 1 mg/kg): 6% | Mean Specific Binding (dpm) ± S.E.M., NET ([7]; 1 mg/kg): 950 ± 46 dpm | % Transporter Occupancy, NET ([7]; 3 mg/kg): 18% | Mean Specific Binding (dpm) ± S.E.M., NET ([7]; 3 mg/kg): 824 ± 30 dpm | % Transporter Occupancy, NET ([7]; 10 mg/kg): 47% | Mean Specific Binding (dpm) ± S.E.M., NET ([7]; 10 mg/kg): 533 ± 25 dpm | % Transporter Occupancy, NET ([7]; 30 mg/kg): 71% | Mean Specific Binding (dpm) ± S.E.M., NET ([7]; 30 mg/kg): 294 ± 42 dpm | Rat Locomotor Activity Total Distance Traveled ± S.E.M. (Rats [8]; 3 mg/kg): 1406.2 ± 84.9 | Rat Locomotor Activity Total Distance Traveled ± S.E.M. (Rats [8]; 10 mg/kg): 1861.4 ± 187.8 | Rat Locomotor Activity Total Distance Traveled ± S.E.M. (Rats [8]; 30 mg/kg): 2612.4 ± 210.8 | IC50 (dopamine transporter; Rat IC50 (nM) rDAT): 43 nM

From patent EP1976513B1 (priority 2006, dated 2007)
